From ChEMBL document CHEMBL3046569 (Med Chem Res, 2011) come the findings set out here.

Data set [1] is described as follows: Therapeutic index, ratio of IC50 for human H9 cells to EC50 for HIV1. It is filed as cell-based. The settings on record: h9.
Data set [2] has as its system Human immunodeficiency virus 1. Put plainly: Antiviral activity against Human immunodeficiency virus 1 infected human H9 cells assessed as inhibition of viral replication. It is filed as functional, organism-based. The settings on record: Human immunodeficiency virus 1, H9; read-out: pEC50 (converted).

The structures appear in SMILES notation.

For the compound `C=C(C)[C@@H]1CC[C@]2(COC(=O)CC(C)CC(=O)O)CC[C@]3(C)[C@H](CC[C@@H]4[C@@]5(C)CC[C@H](OC(=O)CC(C)CC(=O)O)C(C)(C)[C@@H]5CC[C@]43C)[C@@H]12` (stereo partly drawn), the pTI in data set [1] is reported as -3.725. For the same compound, in data set [2], the EC50 is 0.0039 µM.
The like results for `C=C(C)[C@@H]1CC[C@]2(COC(=O)CC(C)(C)CC(=O)O)CC[C@]3(C)[C@H](CC[C@@H]4[C@@]5(C)CCC(=O)C(C)(C)[C@@H]5CC[C@]43C)[C@@H]12` were, in that order, -0.462 and 10 µM.
Take `CC(C)[C@@H]1CC[C@]2(COC(=O)CC(C)(C)CC(=O)O)CC[C@]3(C)[C@H](CC[C@@H]4[C@@]5(C)CC[C@H](OC(=O)CC(C)(C)CC(=O)O)C(C)(C)[C@@H]5CC[C@]43C)[C@@H]12`: in data set [1], the pTI is -3.353. Further, in data set [2], the EC50 was 0.0047 µM.
The corresponding values for `CC(C)[C@@H]1CC[C@]2(C(=O)O)CC[C@]3(C)[C@H](CC[C@@H]4[C@@]5(C)CC[C@H](OC(=O)C(C)(C)CC(=O)O)C(C)(C)[C@@H]5CC[C@]43C)[C@@H]12` are -1.14 and 0.56 µM.
The like results for `C=C(C)[C@@H]1CC[C@]2(NOC(=O)CCC(C)(C)CC(=O)O)CC[C@]3(C)[C@H](CC[C@@H]4[C@@]5(C)CC/C(=N\OC(=O)CCC(C)(C)CC(=O)O)C(C)(C)[C@@H]5CC[C@]43C)[C@@H]12` were, in that order, -0.532 and 4.57 µM.
The like results for `CC(C)[C@@H]1CC[C@]2(C(=O)OCc3ccccc3)CC[C@]3(C)[C@H](CC[C@@H]4[C@@]5(C)CC[C@H](OC(=O)CC(C)(C)C(=O)O)C(C)(C)[C@@H]5CC[C@]43C)[C@@H]12` were, in that order, -1.748 and 0.23 µM.
Take `C=C(C)[C@@H]1CC[C@]2(CN)CC[C@]3(C)[C@H](CC[C@@H]4[C@@]5(C)CC[C@H](N)C(C)(C)[C@@H]5CC[C@]43C)[C@@H]12`: the pTI in data set [1] is -0.708. Also, the EC50 in data set [2] was 1.07 µM.
The corresponding values for `C=C(C)[C@@H]1CC[C@]2(/C=N/O)CC[C@]3(C)[C@H](CC[C@@H]4[C@@]5(C)CC/C(=N\O)C(C)(C)[C@@H]5CC[C@]43C)[C@@H]12` [BETULIN-3,28-DIOXIME] are -0.708 and 1.07 µM.
For the compound `CC(C)[C@@H]1CC[C@]2(C(=O)OC(=O)N3CCOCC3)CC[C@]3(C)[C@H](CC[C@@H]4[C@@]5(C)CC[C@H](O)C(C)(C)[C@@H]5CC[C@]43C)[C@@H]12`, the pTI in data set [1] is -0.114. Further, the EC50 in data set [2] is 26 µM.
The corresponding values for `C=C(C)[C@@H]1CC[C@]2(C(=O)O)CC[C@]3(C)[C@H](CC[C@@H]4[C@@]5(C)CC[C@H](OC(=O)C(C)(C)CC(=O)O)C(C)(C)[C@@H]5CC[C@]43C)[C@@H]12` are -0.826 and 2.7 µM.
The like results for `CC(C)[C@@H]1CC[C@]2(C(=O)O)CC[C@]3(C)[C@H](CC[C@@H]4[C@@]5(C)CC[C@H](OC(=O)CC(C)(C)C(=O)O)C(C)(C)[C@@H]5CC[C@]43C)[C@@H]12` were, in that order, -4.146 and 0.0003 µM.
`CC(C)[C@@H]1CC[C@]2(COC(=O)CCCC(=O)O)CC[C@]3(C)[C@H](CC[C@@H]4[C@@]5(C)CC[C@H](OC(=O)CCCC(=O)O)C(C)(C)[C@@H]5CC[C@]43C)[C@@H]12`: the pTI in data set [1] is listed as -1.23. Also, the EC50 in data set [2] is 1.6 µM.
The like results for `C=C(C)[C@@H]1CC[C@]2(COC(=O)CC3(CC(=O)O)CCCC3)CC[C@]3(C)[C@H](CC[C@@H]4[C@@]5(C)CCC(=O)C(C)(C)[C@@H]5CC[C@]43C)[C@@H]12` were, in that order, -0.477 and 4.3 µM.
For the compound `C=C(COC(C)=O)[C@@H]1CC[C@]2(COC(C)=O)CC[C@]3(C)[C@H](CC[C@@H]4[C@@]5(C)CC[C@H](OC(C)=O)C(C)(C)[C@@H]5CC[C@]43C)[C@@H]12`, in data set [1], the pTI was -0.398. Besides, the EC50 in data set [2] was 10.2 µM.
